From article PMC2875304 (Experimental parasitology, 2010)
Like-named read-outs stand apart in the source and are kept apart here. No end group written: not given here.

Legend:
[1] = tested on: Trypanosoma cruzi (M/HOM/AR/74/CA-I CL72); format: cell-based; conditions: for IC50: 50% reduction in untreated-culture growth after 96 hours, triplicate wells, three independent trials
[2] = tested on: E. coli DH5α; assay: Minimal Inhibitory Concentration; format: cell-based, Escherichia coli; conditions: single AMP treatment, result in words
[3] = tested on: Rhodococcus rhodnii; assay: Minimal Inhibitory Concentration; format: cell-based; conditions: single AMP treatment, result in words

## GIGKFLHSAKKFGKAFVGEIMNS [Magainin, Magainin II]
[1]; read-out: IC50B, peptide B alone
  IC50: 10 µM

## GNNRPVYIPQPRPPHPRL-NH2 [Apidaecin, Apidaecin 14]
[1]; read-out: IC50A, peptide A alone
  IC50: 0.7 µM

## KWKLFKKIEKVGQNIRDGIIKAGPAVAVVGQATQIAK-NH2 [Cecropin A]
[1]; single peptide, 96 hour treatment, 0 to 10 μM concentration range
  Growth inhibition of T. cruzi: ≤ 50%

## QGYQGGYTRPFPRPPYGGGYHPVPVCTSCHRLSPLQARACCRQLGRCCDAKQTYG [Penaeidin, penaeidin]
[2]
  Effect on E. coli in MIC assay: did not have an effect
[3]
  Effect on R. rhodnii in MIC assay: did not have an effect
